# Entries after “also recorded” stand apart in the source; their conditions may differ.
# Key:
# [1] = test system: Caki-1 human kidney cancer cells; experiment: Caki-1 kidney tumour growth in CD-1 nude mice (3.8); assay type: in vivo, human cells in mice
# Protocol: Treatments lasted for 14 days thereafter. Antitumour activities were estimated by the inhibition of tumour volume, which was measured with a caliper on four different occasions over the treatment period. Each point represents mean tumour volume calculated from 5 animals per experimental group. […] Control animals (control) received saline alone for the same period. At the end of the treatments, the animals were sacrificed, tumours were excised and their weights were measured. Each bar represents mean tumour weight calculated from 6 animals per experimental group. […] Treatments lasted for 24 days thereafter. Antitumour activities were estimated by the inhibition of tumour volume, which was measured with a caliper at two-day intervals over the treatment period. Each point represents mean tumour volume calculated from 4 animals per experimental group. […] Treatments lasted for 24 days thereafter. Antitumour activities were estimated by the inhibition of tumour volume, which was measured with a caliper at two-day intervals over the treatment period. Each point represents mean tumour volume calculated from 4 animals per experimental group. […] Each point represents mean tumour volume calculated from 5 animals per experimental group. […] Antitumour activities were estimated by the inhibition of tumour volume, which was measured with a caliper on four different occasions over 16-day period. […]
# [2] = Phase I study of SEQ ID NO:1 by continuous intravenous infusion in patients with advanced cancer: toxicity and response
# Protocol: Pharmacokinetic parameters were assessed. SEQ ID NO:1 was administered using a portable infusion pump in cycles of 21 days CVI followed by one week of rest. […] Doses were doubled in cohorts of 1-3 patients until the appearance of Gr 1 toxicity, with subsequent escalation of 20-30% in cohorts of 3 patients. DLT was defined as Gr 4 neutropenia lasting 3 days or with fever; Gr 4 thrombocytopenia (T) or Gr 3 T with Gr 1 bleeding; or Gr 3 non-hematologic toxicity.
# [3] = test system: human tumour cell xenografts; experiment: Human tumour cell xenografts in mice, compiled tumour weights (FIG. 29); assay type: in vivo, human cells in mice
# Protocol: CD-1 athymic female nude mice, BALB/c nu/nu nude mice, SCID, and SCID beige mice were purchased from Charles River Laboratories (Montreal, Canada) and experiments were typically initiated when the mice were 6-7 weeks old. Human tumour cells were grown in appropriate growth medium and 3×10^6−1×10^7 cells suspended in 100 μl of PBS were subcutaneously injected into the right flank of the animals with a 23 gauge needle (cell number indicated in the figure legends). Each experimental group typically contained 10 mice. After the size of tumour reached a mean tumour volume of 50-100 mm^3, treatment was initiated. Antisense oligonucleotides (dissolved in saline) were administered by bolus infusion into the tail vein of animal every other day at the indicated dose. Anti-tumour activity was estimated by the measurement of tumour volume with a calliper at two-three day intervals. Tumour volume was calculated by a formula L×W×H/2, where L indicates length, W indicates width and H indicates height. Within 24 hours after the last treatment, the animals were sacrificed and tumour and body weights were measured.
# Each data point represents tumour weight and standard error. […]
# [4] = test system: A498 human kidney cancer cells; experiment: A498 kidney tumour xenograft in SCID mice, controls and chemotherapeutics (Example 7); assay type: in vivo, human cells in mice; conditions: oligonucleotides 10 mg/kg/2 days i.v., 5-FU 13 mg/kg/day×5, vinblastine 1 mg/kg/week, gemcitabine 100 mg/kg/week
# From the text: CD-1 athymic female nude mice, BALB/c nu/nu nude mice, SCID, and SCID beige mice were purchased from Charles River Laboratories (Montreal, Canada) and experiments were typically initiated when the mice were 6-7 weeks old. […] Each experimental group typically contained 10 mice. After the size of tumour reached a mean tumour volume of 50-100 mm^3, treatment was initiated. […] Anti-tumour activity was estimated by the measurement of tumour volume with a calliper at two-three day intervals. Tumour volume was calculated by a formula L×W×H/2, where L indicates length, W indicates width and H indicates height. Within 24 hours after the last treatment, the animals were sacrificed and tumour and body weights were measured. Results of statistical analyses of the data are presented as P values in the figure legends.
# Three additional treatment groups received: 5-FU (13 mg/kg/day×5), vinblastine (1 mg/kg/week) and gemcitabine (100 mg/kg/week). […] Caliper measurements at 1-week intervals were used to calculate tumour volumes. Each point in FIG. 28C represents mean tumour volume calculated from 10 animals per experimental group (with the exception of SEQ ID NO: 1 which was 8 animals). […] After 54 days the mice were sacrificed and the A498 tumours weighed. Each bar represents the mean tumour weight and standard error calculated for each treatment group.
# [5] = test system: SU.86.86 human pancreatic cancer cells; experiment: SU.86.86 pancreatic tumour growth in CD-1 nude mice (3.6); assay type: in vivo, human cells in mice
# Protocol: Treatments lasted for 14 days thereafter. Antitumour activities were estimated by the inhibition of tumour volume, which was measured with a caliper on four different occasions over the treatment period. Each point represents mean tumour volume calculated from 5 animals per experimental group. […] Control animals (control) received saline alone for the same period. At the end of the treatments, the animals were sacrificed, tumours were excised and their weights were measured. Each bar represents mean tumour weight calculated from 6 animals per experimental group. […] Treatments lasted for 24 days thereafter. Antitumour activities were estimated by the inhibition of tumour volume, which was measured with a caliper at two-day intervals over the treatment period. Each point represents mean tumour volume calculated from 4 animals per experimental group. […] Treatments lasted for 24 days thereafter. Antitumour activities were estimated by the inhibition of tumour volume, which was measured with a caliper at two-day intervals over the treatment period. Each point represents mean tumour volume calculated from 4 animals per experimental group. […] Each point represents mean tumour volume calculated from 5 animals per experimental group. […] Antitumour activities were estimated by the inhibition of tumour volume, which was measured with a caliper on four different occasions over 16-day period. Each point represents mean tumour volume calculated from 5 animals per experimental group. […] Antitumour activities were estimated by the inhibition of tumour volume, which was measured with a caliper at two-day intervals over the treatment period. Each point represents mean tumour volume calculated from 5 animals per experimental group. […] Antitumour activities were estimated by the inhibition of tumour volume, which was measured with a caliper at various time intervals over the span of 30 days. Each point represents mean tumour volume calculated from 6 animals per experimental group. […] Antitumour activities were estimated by the inhibition of tumour volume, which was measured with a caliper. […]
# [6] = Cycle 1, 18.5 mg/m^2/day 21 day CVI, 2 patients
# [7] = Cycle 1, 74 mg/m^2/day 21 day CVI, 1 patient
# [8] = Cycle 1, 148 mg/m^2/day 21 day CVI, 6 patients
# [9] = Cycle 1, 185 mg/m^2/day 21 day CVI, 9 patients
# [10] = Cycle 1, 222 mg/m^2/day 21 day CVI, 7 patients
substance,measurement,setting,value
"5′-GGCTAAATCGCTCCACCAAG-3′ (all phosphorothioate, sugars by position and methylation of C not given here) [SEQ ID NO: 1, fully phosphorothioated antisense oligonucleotide that hybridizes to the coding region of R2 mRNA]","Inhibitory effect on tumour growth (tumour volume, FIG. 21A)","[1]; Caki-1, CD-1 nude mice, 10 mg/kg i.v. every other day to day 36","powerful inhibitory effects on the growth of human renal carcinoma cells, resulting in total regression of the tumours in three mice"
same,Inhibition of tumour size,[1]; Human Renal Carcinoma (first entry of Table 5),Approximately 90% inhibition of tumour size
same,DLT: Gr 3 fatigue,[2]; 148 mg/m^2/day,1/6
same,Tolerability at the recommended phase II dose,[2]; 185 mg/m^2/day,well tolerated by 11 patients
same,DLT: Gr 4 transaminase elevation,[2]; 222 mg/m^2/day,2/6
same,recommended phase II dose,[2]; 21 days CVI followed by one week of rest,185 mg/m^2/day
same,maximum tolerated dose (MTD),"[2]; 21 days CVI followed by one week of rest, patients with advanced malignancies",222 mg/m^2/day
same,No. of Patients with Grade of Toxicity: Anorexia Grade 1,[2]; [6],1
same,No. of Patients with Grade of Toxicity: Fatigue Grade 1,[2]; [6],1
same,No. of Patients with Grade of Toxicity: Anorexia Grade 1,[2]; [7],1
same,No. of Patients with Grade of Toxicity: Fatigue Grade 1,[2]; [7],1
same,No. of Patients with Grade of Toxicity: Nausea Grade 1,[2]; [7],1
same,No. of Patients with DLT (Table 10),[2]; [8],1
same,No. of Patients with Grade of Toxicity: Anorexia Grade 1,[2]; [8],1
same,No. of Patients with Grade of Toxicity: Anorexia Grade 2,[2]; [8],1
same,No. of Patients with Grade of Toxicity: Fatigue Grade 1,[2]; [8],1
same,No. of Patients with Grade of Toxicity: Fatigue Grade 2,[2]; [8],1
same,No. of Patients with Grade of Toxicity: Fatigue Grade 3 (*DLT),[2]; [8],1*
same,No. of Patients with Grade of Toxicity: Nausea Grade 2,[2]; [8],1
same,No. of Patients with Grade of Toxicity: Neutropenia Grade 3,[2]; [8],1
same,No. of Patients with Grade of Toxicity: Anorexia Grade 1,[2]; [9],2
same,No. of Patients with Grade of Toxicity: Fatigue Grade 1,[2]; [9],3
same,No. of Patients with Grade of Toxicity: Fatigue Grade 2,[2]; [9],2
same,No. of Patients with Grade of Toxicity: Nausea Grade 1,[2]; [9],3
same,No. of Patients with DLT (Table 11),[2]; [10],2
same,No. of Patients with Grade of Toxicity: Anemia Grade 2,[2]; [10],2
same,No. of Patients with Grade of Toxicity: Anorexia Grade 2,[2]; [10],1
same,No. of Patients with Grade of Toxicity: Bilirubin Grade 2,[2]; [10],1
same,No. of Patients with Grade of Toxicity: Bilirubin Grade 4 (*DLT),[2]; [10],1*
same,No. of Patients with Grade of Toxicity: Fatigue Grade 1,[2]; [10],3
same,No. of Patients with Grade of Toxicity: Fatigue Grade 2,[2]; [10],1
same,No. of Patients with Grade of Toxicity: Nausea Grade 1,[2]; [10],3
same,No. of Patients with Grade of Toxicity: Neutropenia Grade 2,[2]; [10],1
same,No. of Patients with Grade of Toxicity: Rash Grade 2,[2]; [10],1
same,No. of Patients with Grade of Toxicity: Transaminases Grade 2,[2]; [10],1
same,No. of Patients with Grade of Toxicity: Transaminases Grade 4 (*DLT),[2]; [10],2*
same,Hematologic toxicity,[2]; doses 18.5 to 222 mg/m^2/day,mild
same,Number of DLTs observed,[2]; doses 18.5 to 222 mg/m^2/day,Three DLTs were observed in 25 patients assessable for toxicity
same,Other serious toxicities: Gr 3 non-neutropenic infection,[2]; doses 18.5 to 222 mg/m^2/day,2 patients
same,Other serious toxicities: bowel obstruction,[2]; doses 18.5 to 222 mg/m^2/day,1 patient
same,common (Gr 1-2) non-hematologic toxicities: anorexia,[2]; doses 18.5 to 222 mg/m^2/day,42%
same,common (Gr 1-2) non-hematologic toxicities: fatigue,[2]; doses 18.5 to 222 mg/m^2/day,69%
same,common (Gr 1-2) non-hematologic toxicities: nausea,[2]; doses 18.5 to 222 mg/m^2/day,38%
same,Tumour response: stable disease,"[2]; patients with advanced cancer, after 2 cycles",Four patients had stable disease (SD) after 2 cycles
same,Effect on tumour growth and endpoint weight,[3]; all cancer cell lines tested,significant decrease in tumour growth (volume over time) and endpoint weight
same,"p, difference in tumour weight between control and oligonucleotide treated groups","[3]; range of human tumour xenografts, 2.5 mg/kg to 10 mg/kg i.v. every second day, all cases",< 0.05
same,Effect on tumour growth (volume and weight),[4],dramatic inhibition in growth of Caki-1 and A498 renal tumours; also recorded: superior to any of these compounds
same,Inhibition of tumour weight,[5]; Human Pancreatic Adenocarcinoma,~65%
same,Inhibition of tumour growth,"[5]; Human Pancreatic Adenocarcinoma, up to 39 days after tumour implantation",Complete inhibition of tumour growth up to 39
same,"Inhibitory effect on tumour growth (tumour volume, FIG. 19)","[5]; SU.86.86, CD-1 nude mice, 10 mg/kg i.v. every other day, 34 days, two batches",strong inhibitory effects on the growth of human pancreatic carcinoma

# From patent US7968526B2, “Antisense oligonucleotides directed to ribonucleotide reductase R2 and uses thereof in the treatment of cancer” (Lorus Therapeutics Inc., priority 2003, dated 2011)
